According to US20010024657A1, “Pharmaceutical oral patch for controlled release of pharmaceutical agents in the oral cavity” (priority 1997, published 2001):
Entries after “also recorded” stand apart in the source; their conditions may differ.

Key:
[1] = cited from earlier work; for solubility in buffer (in words): neutral to slightly basic, pH 7-8, high buffering capacity
[2] = In vivo release of clotrimazole from patches on the upper teeth, measured in saliva of volunteers; parameters: species or system human; details: total dose of 10 mg clotrimazole from patches
Description: Each volunteer attached two pharmaceutical oral patches of 5 mg clotrimazole to the buccal side of the upper teeth. No food or drink was allowed during the tests. Saliva samples were expectorated at given time intervals and tested for clotrimazole by HPLC. The patch was affixed to the tooth by using a drop of a solution of Eudragit S™ in ethanol.
The in vivo release from the patches made from three formulations of differing molar ratios of NaOH were tested in vivo. Formulation 193-5 has a low level of NaOH (percent molar ratio of 11.5%) and the patch made therefrom is expected to release drug even more slowly than the patch made from formulation 193-34.

Row | Compound | solubility in water (in words) [1] | time of clinically significant levels of clotrimazole in saliva [2] | solubility in buffer (in words) [1]
1 | Clc1ccccc1C(c1ccccc1)(c1ccccc1)n1ccnc1 [clotrimazole, Clotrimazole] | poorly water soluble | at least 6 hours | 
2 | CC(C(=O)O)c1ccc(-c2ccccc2)c(F)c1 (stereo not drawn) [flurbiprofen] | poorly soluble in water; also recorded: only slightly soluble |  | soluble in buffer
3 | O=C([O-])c1ccccc1O.[Na+] [sodium salicylate] | very soluble |  | very soluble
